Results from patent US20260048047A1, “SMALL-MOLECULE ACTIVATORS OF MYCOBACTERIUM TUBERCULOSIS ADENYLYL CYCLASE” (priority 2022, published 2026).

Tested on: M. tuberculosis
Assay: Extracellular activity against M. tuberculosis in cholesterol media (Alamar Blue reduction assay)
Assay type: cell-based, Mycobacterium tuberculosis
Conditions: Mycobacterium tuberculosis, 240 h, 7H12-Cholesterol media, 10 days; read-out: Cholesterol broth: alamar blue--EC50

SMILES	EC50 [nM]
Cc1nonc1CC(=O)N1CC2CC1CC2c1nc(-c2ccc(F)cc2)no1 (centres unmarked) [Compound 199, 1-(5-(3-(4-fluorophenyl)-1,2,4-oxadiazol-5-yl)-2-azabicyclo[2.2.1]heptan-2-yl)-2-(4-methyl-1,2,5-oxadiazol-3-yl)ethan-1-one]	324
Cc1noc(CC(=O)N2CCC(c3nc(C4CC4(C)C)no3)CC2)n1 (centres unmarked) [Compound 28, 1-(4-(3-(2,2-dimethylcyclopropyl)-1,2,4-oxadiazol-5-yl)piperidin-1-yl)-2-(3-methyl-1,2,4-oxadiazol-5-yl)ethan-1-one]	> 25000
Cc1nonc1CC(=O)N1CCC2(CC1)CC(c1nc(C3CCCCC3)no1)C2 [Compound 229, 1-(2-(3-cyclohexyl-1,2,4-oxadiazol-5-yl)-7-azaspiro[3.5]nonan-7-yl)-2-(4-methyl-1,2,5-oxadiazol-3-yl)ethan-1-one]	3060
Cc1nocc1CC(=O)N1CCC(c2nc(-c3ccc(Cl)c(Cl)c3)no2)CC1 [Compound 57, 1-(4-(3-(3,4-dichlorophenyl)-1,2,4-oxadiazol-5-yl)piperidin-1-yl)-2-(3-methylisoxazol-4-yl)ethan-1-one]	691
Cc1nonc1CC(=O)N1CCC(c2nc(-c3ccc(F)c(OC(F)(F)F)c3)no2)CC1 [Compound 125]	288
Cc1nonc1CC(=O)N1CC2CC1CC2c1nc(-c2ccc(F)c(F)c2)no1 (centres unmarked) [Compound 198, 1-(5-(3-(3,4-difluorophenyl)-1,2,4-oxadiazol-5-yl)-2-azabicyclo[2.2.1]heptan-2-yl)-2-(4-methyl-1,2,5-oxadiazol-3-yl)ethan-1-one]	247
Cc1noc(CC(=O)N2CCC(c3nc(C4CCC(C(F)(F)F)CC4)no3)CC2)n1 (centres unmarked) [Compound 37, 2-(3-methyl-1,2,4-oxadiazol-5-yl)-1-(4-(3-(4-(trifluoromethyl)cyclohexyl)-1,2,4-oxadiazol-5-yl)piperidin-1-yl)ethan-1-one]	7020
Cc1nonc1CC(=O)N1CCC(c2nc(C3CCC(C(F)(F)F)CC3)no2)CC1 (centres unmarked) [Compound 100, 2-(4-methyl-1,2,5-oxadiazol-3-yl)-1-(4-(3-(4-(trifluoromethyl)cyclohexyl)-1,2,4-oxadiazol-5-yl)piperidin-1-yl)ethan-1-one]	688
Cc1noc(CC(=O)N2CCC3(CC2)CC3c2nc(-c3ccc(F)cc3)no2)n1 (centres unmarked) [Compound 238, 1-(1-(3-(4-fluorophenyl)-1,2,4-oxadiazol-5-yl)-6-azaspiro[2.5]octan-6-yl)-2-(3-methyl-1,2,4-oxadiazol-5-yl)ethan-1-one]	> 10000
Cc1nccnc1CC(=O)N1CCC(c2nc(C3CCCCC3)no2)CC1 [Compound 13, 1-(4-(3-cyclohexyl-1,2,4-oxadiazol-5-yl)piperidin-1-yl)-2-(3-methylpyrazin-2-yl)ethan-1-one]	> 25000
Cc1noc(CC(=O)N2CCC3(CC2)CC(c2nc(C4CCCCC4)no2)C3)n1 [Compound 225, 1-(2-(3-cyclohexyl-1,2,4-oxadiazol-5-yl)-7-azaspiro[3.5]nonan-7-yl)-2-(3-methyl-1,2,4-oxadiazol-5-yl)ethan-1-one]	> 10000
Cc1noc(CC(=O)N2CCC(c3nc(-c4ccc(F)cc4Cl)no3)CC2)n1 [Compound 46, 1-(4-(3-(2-chloro-4-fluorophenyl)-1,2,4-oxadiazol-5-yl)piperidin-1-yl)-2-(3-methyl-1,2,4-oxadiazol-5-yl)ethan-1-one]	2970
Cc1noc(CC(=O)N2CCC(c3noc(C45CC(F)(C4)C5)n3)CC2)n1 [Compound 43, 1-(4-(5-(3-fluorobicyclo[1.1.1]pentan-1-yl)-1,2,4-oxadiazol-3-yl)piperidin-1-yl)-2-(3-methyl-1,2,4-oxadiazol-5-yl)ethan-1-one]	> 25000
Cc1nonc1CC(=O)N1CCC(n2ccc(-c3ccc(F)cc3)n2)CC1 [Compound 127, 1-(4-(3-(4-fluorophenyl)-1H-pyrazol-1-yl)piperidin-1-yl)-2-(4-methyl-1,2,5-oxadiazol-3-yl)ethan-1-one]	2970
